Source: PMC7329864, “Role of water in cyclooxygenase catalysis and design of anti-inflammatory agents targeting two sites of the enzyme” (Scientific Reports, 2020)
Entries after “also recorded” stand apart in the source; their conditions may differ. Read-outs that look alike come from different tables or passages of the source.

Legend:
wt COX-2 = biological target: T1, wt COX-2 (Homo sapiens, UniProt P35354); experiment: COX inhibitory enzyme immunoassay (COX-2); format: biochemical; conditions: for IC50: enzyme immunoassay, screened at 10^–4–10^–8 M, average of 3 experiments, SD ± 0.5 µM; for SI (IC50(COX-1)/IC50 (COX-2): selectivity index COX-1/COX-2
T1 construct: purchased Cayman Chemical Co. item no; 560131
T1 sequence (P35354 18-604): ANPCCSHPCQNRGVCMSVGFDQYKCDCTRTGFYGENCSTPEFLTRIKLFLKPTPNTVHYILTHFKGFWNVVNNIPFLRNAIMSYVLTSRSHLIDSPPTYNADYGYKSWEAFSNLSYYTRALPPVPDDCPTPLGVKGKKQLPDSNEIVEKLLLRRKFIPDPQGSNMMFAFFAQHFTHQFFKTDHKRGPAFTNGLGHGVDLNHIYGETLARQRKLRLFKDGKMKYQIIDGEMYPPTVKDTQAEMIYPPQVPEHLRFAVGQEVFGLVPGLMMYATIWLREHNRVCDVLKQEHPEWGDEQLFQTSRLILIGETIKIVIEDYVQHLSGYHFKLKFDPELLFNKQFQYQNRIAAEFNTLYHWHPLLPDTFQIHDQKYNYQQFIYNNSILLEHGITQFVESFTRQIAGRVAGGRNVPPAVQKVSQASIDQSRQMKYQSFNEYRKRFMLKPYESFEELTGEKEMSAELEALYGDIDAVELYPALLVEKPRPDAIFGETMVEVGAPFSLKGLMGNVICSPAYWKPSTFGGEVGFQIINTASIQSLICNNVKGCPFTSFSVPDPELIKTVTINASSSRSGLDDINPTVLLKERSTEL
Protocol: (§1) All the compounds of Fig. 9 were screened for COX-1/2 inhibitory activity in triplicate at 10^–4–10^–8 M concentration by performing enzyme immunoassays. The activity of the compounds was quantified in terms of amount of prostaglandins produced by the enzymes in the presence of different concentrations of the compound.
(§2) For studying the COX-1, COX-2 inhibitory activities of the compounds, various reagents were prepared as per the protocol of the assays. The compounds were screened in triplicate at 10^–4–10^–8 M concentration using the procedure as described in the previous report.

COX-1 = biological target: T2, COX-1 (Ovis aries, UniProt P05979); experiment: COX inhibitory enzyme immunoassay (COX-1); format: biochemical
T2 construct: purchased Cayman Chemical Co. item no; 560131
T2 sequence (P05979 25-600): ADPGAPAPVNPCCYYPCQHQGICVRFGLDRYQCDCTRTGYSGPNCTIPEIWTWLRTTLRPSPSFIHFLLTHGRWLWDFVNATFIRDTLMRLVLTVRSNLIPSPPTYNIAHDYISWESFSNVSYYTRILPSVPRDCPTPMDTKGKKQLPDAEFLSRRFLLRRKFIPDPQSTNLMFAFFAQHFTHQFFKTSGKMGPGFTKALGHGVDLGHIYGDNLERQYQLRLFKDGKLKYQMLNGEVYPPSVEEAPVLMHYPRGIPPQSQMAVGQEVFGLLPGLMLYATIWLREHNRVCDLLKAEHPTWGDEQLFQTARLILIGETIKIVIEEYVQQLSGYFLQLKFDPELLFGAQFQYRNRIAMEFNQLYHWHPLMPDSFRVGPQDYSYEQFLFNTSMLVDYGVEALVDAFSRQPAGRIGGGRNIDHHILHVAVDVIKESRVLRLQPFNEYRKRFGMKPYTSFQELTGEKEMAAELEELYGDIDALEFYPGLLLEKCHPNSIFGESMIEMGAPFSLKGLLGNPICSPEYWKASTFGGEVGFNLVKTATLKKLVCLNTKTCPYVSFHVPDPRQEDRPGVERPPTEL
Protocol: as §1, §2

COX-2 = biological target: T3, COX-2 (Homo sapiens, UniProt P35354); experiment: UV-Vis and fluorescence studies of interaction with COX-2; format: binding; conditions: addition of COX-2 in Tris–HCl buffer pH 7.25 to solution of compound
T3 sequence (P35354 18-604): T1 sequence (P35354 18-604)
Text: In order to support in-silico experiments, the interactions of 1, 13d and 15d with COX-2 were checked with UV–vis and fluorescence spectral techniques. […] The appearance of level-off in the visible region (500–700 nm) was attributed to the Mie scattering due to the formation of aggregates. […] Corroborating the results of molecular modelling studies, the changes in the UV–Vis spectra as well as the fluorescence spectrum of the compound on addition of COX-2 probably occurred due to the HOMO–LUMO interactions between 1 and the enzyme (Figure S26). The linear Stern–Volmer plot of decrease in fluorescence intensity at 567 nm on increasing COX-2 concentration gave Stern–Volmer constant Ksv 3.30 × 10^4 M^-1. The detection limit of the compound for COX-2 was 0.02 nM (Figure S26C,D).
In order to support in-silico experiments, the interactions of 1, 13d and 15d with COX-2 were checked with UV-vis and fluorescence spectral techniques. […] The appearance of level-off in the visible region (500-700 nm) was attributed to the Mie scattering due to the formation of aggregates. […] Corroborating the results of molecular modelling studies, the changes in the UV-Vis spectra as well as the fluorescence spectrum of the compound on addition of COX-2 probably occurred due to the HOMO-LUMO interactions between 1 and the enzyme (Figure S27). The linear Stern-Volmer plot of decrease in fluorescence intensity at 567 nm on increasing COX-2 concentration gave Stern-Volmer constant Ksv 3.30x10^4 M^-1. The detection limit of the compound for COX-2 was 0.02 nM (Figure 27C, 27D).

[1] = enzyme immunoassay, screened at 10^–4–10^–8 M, average of 3 experiments, SD ± 0.5 µM, read-out: IC50 COX-1

| Compound | IC50 (wt COX-2) [µM] | SI (IC50(COX-1)/IC50 (COX-2) (wt COX-2) | IC50 (COX-1; [1]) [µM] | IC50 (COX-1) [µM] | decrease in fluorescence intensity (quenching) in the presence of COX-2 (COX-2) |
| --- | --- | --- | --- | --- | --- |
| Cn1cc(/C=C2\C(=O)N(CCCn3c4ccccc4c(=O)c4ccccc43)c3ccccc32)c2ccccc21 [Compound 7, (Z)-10-(3-(3-((1-methyl-1H-indol-3-yl)methylene)-2-oxoindolin-1-yl)propyl)acridin-9(10H)-one] | 22 | > 4.5 | > 100 | – | – |
| O=C1NC(=O)C(=Cc2cn(CCCn3c4ccccc4c(=O)c4ccccc43)c3ccccc23)C(=O)N1 [Compound 3, 5-((1-(3-(9-Oxoacridin-10(9H)-yl)propyl)-1H-indol-3-yl)methylene)pyrimidine-2,4,6 (1H, 3H, 5H)-trione] | 10 | > 10 | – | > 100 | – |
| COc1cc(/C=C2\C(=O)N(CCCCCn3c4ccccc4c(=O)c4ccccc43)c3ccccc32)cc(OC)c1O [Compound 9, (Z)-10-(5-(3-(4-Hydroxy-3,5-dimethoxybenzylidene)-2-oxoindolin-1-yl)pentyl)acridin-9(10H)-one] | 0.23 | 250 | 52 | – | – |
| CN1C(=O)C(=Cc2cn(CCCCCCn3c4ccccc4c(=O)c4ccccc43)c3ccccc23)C(=O)N(C)C1=O [Compound 4] | 2.15 | 15 | – | 33 | – |
| Cn1cc(/C=C2\C(=O)N(CCCCCn3c4ccccc4c(=O)c4ccccc43)c3ccccc32)c2ccccc21 [Compound 6, (Z)-10-(5-(3-((1-Methyl-1H-indol-3-yl)methylene)-2-oxoindolin-1-yl)pentyl)acridin-9(10H)-one] | 0.35 | 160 | 60 | – | – |
| O=Cc1cn(CCCCCCn2c3ccccc3c(=O)c3ccccc32)c2ccccc12 [Compound 15d, 1-(6-(9-Oxoacridin-10(9H)-yl)hexyl)-1H-indole-3-carbaldehyde] | 23.5 | > 4 | – | > 100 | Small decrease; also recorded: much less |
| O=c1c2ccccc2n(CCCCCCBr)c2ccccc12 [Compound 13d, 10-(6-Bromohexyl)acridin-9(10H)-one] | 48.5 | > 2 | > 100 | – | Small decrease; also recorded: much less |
| O=C1NC(=O)C(=Cc2cn(CCCCCn3c4ccccc4c(=O)c4ccccc43)c3ccccc23)C(=O)N1 [Compound 2, 5-((1-(5-(9-Oxoacridin-10(9H)-yl)pentyl)-1H-indol-3-yl)methylene)pyrimidine-2,4,6(1H, 3H, 5H)-trione] | 0.1 | 400 | – | 40 | – |
| COc1cc(/C=C2\C(=O)N(CCCn3c4ccccc4c(=O)c4ccccc43)c3ccccc32)cc(OC)c1O [Compound 10, (Z)-10-(3-(3-(4-Hydroxy-3,5-dimethoxybenzylidene)-2-oxoindolin-1-yl)propyl)acridin-9(10H)-one] | 12 | > 8 | > 100 | – | – |
| Cn1cc(/C=C2\C(=O)N(CCCCCCn3c4ccccc4c(=O)c4ccccc43)c3ccccc32)c2ccccc21 [Compound 5, (Z)-10-(6-(3-((1-Methyl-1H-indol-3-yl)methylene)-2-oxoindolin-1-yl)hexyl)acridin-9(10H)-one] | 0.15 | 350 | 53 | – | – |
| COc1cc(/C=C2\C(=O)N(CCCCCCn3c4ccccc4c(=O)c4ccccc43)c3ccccc32)cc(OC)c1O [Compound 8, (Z)-10-(6-(3-(4-Hydroxy-3,5-dimethoxybenzylidene)-2-oxoindolin-1-yl)hexyl)acridin-9(10H)-one] | 0.12 | 400 | 48 | – | – |
